According to patent publication US20260285871A1, “Polymorphic Compounds and Uses Thereof” (TYRA BIOSCIENCES, INC., priority 2022, published 2026):

Legend:
Type in all cases: physicochemical
[1] = Dynamic Vapor Sorption (DVS), moisture sorption/desorption; details: data not shown; for hygroscopicity suggested by vapor sorption data: DVS, 5% to 98% RH
Description: Dynamic Vapor Sorption (DVS): Moisture sorption/desorption data were collected on a DVS-intrinsic vapor sorption analyser (Surface Measurement Systems NA, Allentown, PA, USA) and operating with DVS-intrinsic control software (Version 1.0.5.1). Samples were not dried prior to analysis. Sorption and desorption data were collected over a range from 5% to 98% relative humidity (RH) via 10% RH increments under a nitrogen purge. The equilibrium criterion used for analysis was less than 0.005% weight change in 10 min with a maximum equilibration time of 3 h.

[2] = Crystallization (polymorph) studies of compound 2: fast, reactive, slurry at 40° C., anti-solvent; solids analysed by XRPD; details: solvent 1,2 Prop Diol
Protocol: Forms I-XIII of compound 2 were prepared according to one of the crystallization methods described below, e.g., fast crystallization; reactive crystallization; slurry crystallization or anti-solvent crystallization.
Fast Crystallization Method: In a typical experiment, compound 2 (ca. 10 mg) was dissolved in minimum quantity the stated solvent while heating to 80° C. The resulted solution was allowed to cool down to room temperature. […]
Reactive Crystallization: Benzene sulfonic acid (BSA) was dissolved in THF to prepare a stock solution and used for all the reactive crystallization experiments. Compound A free base (ca. 30 mg) was dissolved in minimum quantity the stated solvent while heating to 80° C. The resultant compound A free base solutions were allowed to cooldown to RT and added one equivalent of BSA stock solution. It was observed that most of the reactions yielded precipitate. […]
Slurry Crystallization at 40° C. using Form I of compound 2: In a typical experiment, compound 2 (ca. 100 mg) was suspended in minimum quantity the stated solvent while heating to 40° C. The resulted slurries were allowed to stir at 40° C. for three days.
Anti-Solvent Crystallization: In a typical experiment, compound 2 (ca. 100 mg) was dissolved in solubilizing solvent. To that solution 200 μL anti-solvent was added slowly. These iterations were continued until the precipitation observed or maximum solvent quantity of ~15 mL.

[3] = Storage of solid form at RT, form followed by XRPD; details: storage at RT for about one month
Protocol: X-Ray Powder Diffraction (XRPD) Data Collection Strategy: XRPD patterns of samples were recorded at room temperature on Aeris X-ray diffractometer (Almelo, The Netherlands) using Cu Kα radiation (λ=1.54 Å) at 40 kV, 15 mA passing through a Ni monochromater. Data were collected in a continuous scan mode with a step size of 0.02° and dwell time of 149 s over an angular range of 3° to 40° 2θ. The sample was loaded on a zero-background holder and gently pressed by a clean glass slide to ensure coplanarity of the sample surface with the surface of the holder. Obtained diffractograms were analysed and plotted with HighScore Plus software (V 5.0; Almelo, The Netherlands).

## C[C@@H](Oc1ccc2[nH]nc(-c3ccc(N4CC5(C4)CN(S(C)(=O)=O)C5)nc3)c2c1)c1c(Cl)cncc1Cl [Form II of Compound 5]
[1]
  hygroscopicity suggested by vapor sorption data: moderately hygroscopic

## Br.C[C@@H](Oc1ccc2[nH]nc(-c3ccc(N4CC5(C4)CN(S(C)(=O)=O)C5)nc3)c2c1)c1c(Cl)cncc1Cl [Form II of Compound 12]
[1]
  hygroscopicity suggested by vapor sorption data: moderately hygroscopic

## C[C@@H](Oc1ccc2[nH]nc(-c3ccc(N4CC5(C4)CN(S(C)(=O)=O)C5)nc3)c2c1)c1c(Cl)cncc1Cl [Form I of Compound 24]
[1]
  stability suggested by vapor sorption / DVS data: instability
  weight loss observed in the DVS data: about 3.27%

## C[C@@H](Oc1ccc2[nH]nc(-c3ccc(N4CC5(C4)CN(S(C)(=O)=O)C5)nc3)c2c1)c1c(Cl)cncc1Cl.Cl [Form II of Compound 1]
[1]
  hygroscopicity suggested by vapor sorption data: moderately hygroscopic

## C[C@@H](Oc1ccc2[nH]nc(-c3ccc(N4CC5(C4)CN(S(C)(=O)=O)C5)nc3)c2c1)c1c(Cl)cncc1Cl.O=P(O)(O)O [Form I of Compound 23]
[1]
  hygroscopicity suggested by vapor sorption data: hygroscopic

## C[C@@H](Oc1ccc2[nH]nc(-c3ccc(N4CC5(C4)CN(S(C)(=O)=O)C5)nc3)c2c1)c1c(Cl)cncc1Cl.O=C(O)/C=C/C(=O)O (stereo in doubt) [Form II of Compound 3]
[1]
  hygroscopicity suggested by vapor sorption data: moderately hygroscopic

## C[C@@H](Oc1ccc2[nH]nc(-c3ccc(N4CC5(C4)CN(S(C)(=O)=O)C5)nc3)c2c1)c1c(Cl)cncc1Cl.O=S(=O)(O)c1ccccc1 [Compound 2]
[2]; anti-solvent 4-Me-2-Pentanone
  Anti-Solvent Crystallization Result: Form-X
[2]; anti-solvent DEE
  Anti-Solvent Crystallization Result: Form-XI
[2]; anti-solvent EtOAc
  Anti-Solvent Crystallization Result: Form-XI
[2]; anti-solvent T-butyl-methyl-ether
  Anti-Solvent Crystallization Result: Form-XI

## C[C@@H](Oc1ccc2[nH]nc(-c3ccc(N4CC5(C4)CN(S(C)(=O)=O)C5)nc3)c2c1)c1c(Cl)cncc1Cl.O=C(O)C(O)C(O)C(=O)O [Form I of Compound 25]
[1]
  hygroscopicity suggested by vapor sorption data: moderately hygroscopic

## C[C@@H](Oc1ccc2[nH]nc(-c3ccc(N4CC5(C4)CN(S(C)(=O)=O)C5)nc3)c2c1)c1c(Cl)cncc1Cl.O=C(O)CC(=O)O [Form I of Compound 26]
[1]
  hygroscopicity suggested by vapor sorption data: moderately hygroscopic
  weight loss observed in the DVS data: about 2.1%

## C[C@@H](Oc1ccc2[nH]nc(-c3ccc(N4CC5(C4)CN(S(C)(=O)=O)C5)nc3)c2c1)c1c(Cl)cncc1Cl.O=S(=O)(O)c1ccccc1 [Form VIII of compound 2]
[3]
  solid form change during storage: transformed to Form I of compound 2
